Results on two compounds are retold here after patent US20090325984A1, “USE OF 1,7-DIMETHYLXANTHINE FOR THE MANUFACTURE OF A NON-ANXIOGENIC PSYCHOANALEPTIC DRUG FOR THE TREATMENT OF A NEUROPSYCHIATRIC DISORDER” (Pierre Fabre Medicament, priority 2006, published 2009).

Common to all, as to format: in vivo
The test system of test [1] is male CD1 albino mice. Put plainly: Hole-board test in the mouse. To be noted: 50 mg/kg; for number of edges explored / number of holes explored: 20 minutes after injection, vs solvent. As to the method:
The hole-board test investigates curiosity and is negatively affected by anxiety. This apparatus, placed 60 cm above the floor, consists of a square platform of opaque plastic, 40 cm on each side, with 16 evenly distributed holes of such size that an animal is able to pass its head through. The animals were injected and then isolated for 20 minutes before being placed at the center of the platform. The number of holes and edges explored by each animal was counted. The apparatus was cleaned after each animal's test.

For test [2], the system named is male CD1 albino mice. Nature of the test: Locomotor activity (horizontal and vertical) in the mouse. As to the method: The animals were placed in groups of 20 in plexiglass cages (38×24×18 cm) and kept in a ventilated animal facility where the temperature was maintained at 21±1° C. The animals had free access to water and food; artificial lighting established a day/night cycle (daytime between 7:00 a.m. and 7:00 p.m.). Experiments were conducted between 11:00 a.m. and 6:00 p.m. […] The solutions were stabilized with Cremophor EL (Sigma) to a final concentration of 15%. The solutions were injected by intraperitoneal route in a dose of 10 ml/kg. Before each test, the animals were isolated for 20 minutes in plexiglass cages (27×13×13 cm); they had food at their disposal. […] Photoelectric sensors in the chambers measured the horizontal and vertical activity of the animals, expressed as the number of interrupted beams, and the data was analyzed using a software application (Omnitech Electronics Inc., Columbus, Ohio, USA). […] Animals were placed in the activity monitoring system immediately after receiving the injection. The chambers were cleaned after each animal's test.

Test [3] concerns male CD1 albino mice. Nature of the test: Black-white box test in the mouse. Particulars: 50 mg/kg; for amount of time spent in the lighted compartment: 20 minutes after injection, vs controls. As to the method: The black-white box test measures the state of anxiety of animals as a function of their aversion to light. The apparatus consists of two compartments of the same size (length=21 cm, width=15 cm, height=25 cm), one painted white and illuminated by a 40 W bulb, the other painted black and closed with a cover. The animal can pass from one compartment to the other via to an opening 5 cm-square in the lower portion of the partition. After the injection, the animals were isolated for 20 minutes and then placed in the black compartment with their head facing the corner opposite the opening. Using a mirror placed above the apparatus, the time before first entering the lit compartment, the number of times entering and the time spent in the lighted compartment were measured. The two compartments were cleaned between each test.

For test [4], the system named is male CD1 albino mice. Nature of the test: Raised cross-shaped labyrinth test in the mouse. Particulars: for anxiogenic effect in the raised cross-shaped labyrinth test / number of times the mice entered the open arm: 50 mg/kg; for number of times the mice entered the open arm: five minutes recording. An excerpt:
The raised cross-shaped labyrinth test measures the animals' anxiety level based on its spontaneous aversion to voids (80). The apparatus is composed of four arms, placed at right angles, each measuring 18×6 cm; it rests on a pedestal 60 cm above the floor. Two of the arms have 6 cm-high side walls and are laid out end to end; these are the “closed” arms. […] After receiving their injections, the animals were isolated for twenty minutes and then placed in the labyrinth, at the center of the cross, with their head in the direction of a closed arm. Movements by the animals were recorded for five minutes by a video camera connected to image analysis software (Videotrack). The labyrinth was cleaned after each animal's test.

For the next test, the system named is NMRI mice. Nature of the test: Four-plate test in the mouse. Particulars: intraperitoneal, 25 mg/kg (P<0.05). As to the method: Experiments were performed using NMRI mice weighing 20 g to 30 g according to the method described by Aron et al. (Neuropharmacology, 1971, 10:459-469). Animals were placed in a plastic chamber whose floor consisted of four metal plates independently connected to an electric shock generator (2.5 mA; 1.5 s). The animal is initially left free to explore the apparatus for 15 seconds, after which it receives an electric shock each time it crosses between two metal plates. An increase in the number of crossings indicates anxiolytic activity, whereas a reduction in this number indicates anxiogenic activity.
Paraxanthine was dissolved under heating in sodium benzoate (30 mg/ml) with the addition of Cremophor EL to a final concentration of 15% and administered by intraperitoneal route at doses of 1 mg/kg, 10 mg/kg, 25 mg/kg and 50 mg/kg. Clobazam was used as the reference anxiolytic; it was dispersed in a 0.2% hydroxypropylmethylcellulose solution and administered by intraperitoneal route at a dose of 16 mg/kg.

A further test has as its system male Wistar rats. Nature of the test: Vogel conflict test in the rat. Particulars: intraperitoneal, 1, 10, 25 and 50 mg/kg. As for the experimental part: Experiments were performed using male Wistar rats weighing 180 g to 280 g according to the procedure described by Vogel et al. (Psychopharmacologia, 1971, 21: 1-7). Animals were deprived of water for 48 hours and then individually placed in a plexiglass chamber (15×32×34 cm) whose floor consisted of conducting metal bars spaced 1 cm apart. In the center of one of the chamber's walls was placed a metal cup connected to an electric shock generator (1.7 mA; 1 s).
During the test, the animal, which is left free to explore the apparatus, receives an electric shock each time it consumes water from the cup. A researcher blind to the treatment received by the animal counts the number of times that the animal consumes water and is punished by the electric shock. An increase in the number of times an animal consumes water indicates an anxiolytic effect, whereas a reduction in this number indicates an anxiogenic effect.
Paraxanthine was dissolved under heating in sodium benzoate (30 mg/ml) with the addition of Cremophor EL to a final concentration of 15% and administered by intraperitoneal route at doses of 1 mg/kg, 10 mg/kg, 25 mg/kg and 50 mg/kg. Clobazam was used as the reference anxiolytic; it was dispersed in a 0.2% hydroxypropylmethylcellulose solution and administered by intraperitoneal route at a dose of 32 mg/kg.

“Also recorded” adds a separate entry of the source.

On to `Cn1c(=O)c2c(ncn2C)n(C)c1=O` [caffeine, 1,3,7-Trimethylxanthine], for which, in the test with male CD1 albino mice [1], the “anxiogenic effect in the hole-board test” value is reported as “has an anxiogenic effect; also recorded: had an anxiogenic effect”, the “number of edges explored” value is recorded as “significantly decreased” and the “number of holes explored” value was “significantly decreased”. Further, the “duration of stimulation of horizontal locomotor activity” value in the test with male CD1 albino mice [2] (intraperitoneal, 10 mg/kg) is listed as “at least one hour”. In the test with male CD1 albino mice [2] (intraperitoneal, 10 mg/kg, significant only 30 minutes after the injection (P<0.05)), the vertical locomotor activity entry was “stimulated the animals' vertical locomotor activity”. The horizontal locomotor activity result in the test with male CD1 albino mice [2] (intraperitoneal, 10 mg/kg, within the first 10 minutes (P<0.05)) is given as “stimulated animals' horizontal locomotor activity”. The “duration of stimulation of horizontal locomotor activity” value in the test on male CD1 albino mice [2] (intraperitoneal, 25 mg/kg) is 40 min. Also, in the test with male CD1 albino mice [2] (intraperitoneal, 25 mg/kg, 10 minutes after the injection (P<0.05)), the horizontal locomotor activity entry was “stimulated this activity”. The “duration of decrease of vertical activity” value in the test with male CD1 albino mice [2] (intraperitoneal, 100 mg/kg) turned out to be 40 min. In addition, the vertical locomotor activity result with male CD1 albino mice [2] (intraperitoneal, 100 mg/kg, from the first measurement period (P<0.05)) is “vertical activity decreased relative to that of the controls”. Also, the “horizontal activity for one hour (cumulative)” value in the test with male CD1 albino mice [2] (intraperitoneal, 60 minutes) was “stimulated by caffeine only at doses of 10 mg/kg (P<0.01) and 25 mg/kg (P<0.05)”. Further, in the test on male CD1 albino mice [2] (intraperitoneal, doses lower than 10 mg/kg or higher than 25 mg/kg, vs solvent alone), the horizontal locomotor activity result is given as “no significant difference”. Also, in the test on male CD1 albino mice [2] (same conditions), the “range of doses with stimulating effect on locomotor activity” value was in the range of 10 to 25 mg/kg and the “stimulating effect on locomotor activity compared with paraxanthine” value was “the effect is less”. In the test with male CD1 albino mice [3], the “anxiolytic effect in the black-white box test” value is recorded as “does not; also recorded: did not have an anxiolytic effect” and the “amount of time spent in the lighted compartment” value was “did not change”. Also, in the test with male CD1 albino mice [4], the “anxiogenic effect in the raised cross-shaped labyrinth test” value is on record as “is anxiogenic; also recorded: has an anxiogenic effect” and the “number of times the mice entered the open arm” value is “reduced the number of times the mice entered the open arm”.

On to `Cn1c(=O)[nH]c2ncn(C)c2c1=O` [paraxanthine, 1,7-dimethyl-3,7-dihydro-1H-purine-2,6-dione], for which, in the test with male CD1 albino mice [1], the “anxiogenic effect in the hole-board test” value was “not the case; also recorded: did not”, the “number of edges explored” value is given as “did not have any effect” and the “number of holes explored” value is “did not have any effect”. Further, the “anxiolytic activity (number of crossings between two plates)” value with NMRI mice is recorded as “has anxiolytic activity; also recorded: exhibited anxiolytic activity”. Also, in the test on male CD1 albino mice [2] (doses from 1 mg/kg up to 50 mg/kg), the “stimulating effect on locomotor activity” value is reported as “dose-dependant stimulating effect”. For the same compound, in the test with male CD1 albino mice [2] (intraperitoneal, 1 mg/kg), the “duration of stimulation of horizontal locomotor activity” value is 30 min. The horizontal locomotor activity result with male CD1 albino mice [2] (intraperitoneal, 1 mg/kg, from the first 10-minute measurement period, vs solvent (P<0.05 or P<0.01)) is “stimulated horizontal locomotor activity”. In the test on male CD1 albino mice [2] (intraperitoneal, comparable to horizontal activity, effect of 1 mg/kg more difficult to demonstrate), the vertical locomotor activity result is “stimulated the animals' vertical locomotor activity”. Besides, the “duration of stimulation of horizontal locomotor activity” value in the test with male CD1 albino mice [2] (intraperitoneal, doses higher than 1 mg/kg) was “at least one hour”. The horizontal locomotor activity result with male CD1 albino mice [2] (intraperitoneal, doses higher than 1 mg/kg (P<0.01 or P<0.001)) is recorded as “the effect was more marked”. Further, in the test on male CD1 albino mice [3], the “anxiolytic effect in the black-white box test” value was “has an anxiolytic effect; also recorded: exhibited an anxiolytic effect” and the “amount of time spent in the lighted compartment” value is “increased the amount of time spent in the lighted compartment”. The “number of times entering the lighted compartment” value with male CD1 albino mice [3] (vs animals treated with caffeine (P<0.05)) is reported as “went into the lighted compartment more often than animals treated with caffeine”. For the same compound, in the test on male Wistar rats, the “anxiogenic effect in the Vogel conflict test” value was “did not have an anxiogenic effect; also recorded: did not demonstrate an anxiogenic effect” and the “number of times animals consumed water” value is “did not decrease”. In the test on male CD1 albino mice [4], the “anxiogenic effect in the raised cross-shaped labyrinth test” value is recorded as “not the case” and the “number of times the mice entered the open arm” value was “had no effect”. Further, in the test with male CD1 albino mice [4] (50 mg/kg (high doses)), the “anxiolytic effect in the raised cross-shaped labyrinth test” value is reported as “has an anxiolytic effect”. Also, in the test with male CD1 albino mice [4] (increasing doses from 1 mg/kg to 50 mg/kg (P<0.05 at 50 mg/kg)), the “time spent by the animals in the open arm” value is listed as “increased until a significant effect was exhibited at a dose of 50 mg/kg”.
